# Assay results taken from patent US5037960A, “Inhibitor of protein synthesis, process for its isolation, its use and pharmaceutical compositions in which it is present” (priority 1986, dated 1991).
# Test system: protein synthesis (subcellular fractions of rat liver)
# Type: biochemical
# Conditions: compared with native trichokirin
# Description: The in vitro protocol uses appropriately complemented subcellular fractions of rat liver capable of incorporating ^14 C-phenylalanine in the presence of an artificial messenger RNA: polyuridylic acid.
# The procedure employed for preparing the subcellular fractions and measuring the incorporation of ^14 C-phenylalanine is an adaptation of the method described in BBA 312, 608-615 (1973), using both a microsomal fraction and a cytosol fraction of the rat hepatocytes. The sample containing the trichokirin is introduced in the form of a solution appropriately diluted in a 50 mM tris-HCl buffer, pH 7.6, containing 0.2% of 2-mercaptoethanol and 15 micrograms/ml of bovine serum albumin. The count data are used to calculate, relative to a reference medium without inhibitor, the percentage inhibition of the incorporation of ^14 C-phenylalanine for each reaction medium.
# The values obtained together make it possible to determine the concentration of trichokirin (or IC50) which inhibits the incorporation of ^14 C-phenylalanine by 50% under the experimental conditions.
substance,measurement,value
mercaptosuccinoyl-trichokirin [modified trichokirin],effect of the modification on activity,does not cause a significant loss of activity
